Assay results from patent US20080050354A1, “PROTECTING BIOACTIVE FOOD INGREDIENTS USING MICROORGANISMS HAVING REDUCED METABOLIZING CAPACITY” (COMPAGNIE GERVAIS DANONE, priority 2004, published 2008).
Entries after “also recorded” stand apart in the source; their conditions may differ. Where two headings read alike, the source gives them in different places. Residues, ends and D or L forms follow the SMILES beside them.

What was measured:
[1] = test system: mouse peritoneal macrophages; settings: in vitro; cited from earlier work
[2] = cited from earlier work
[3] = test system: pathogenic strains; settings: in vitro; cited from earlier work
[4] = test system: Staphylococcus aureus; settings: Mice, IM injection; cited from earlier work
[5] = test system: Staphylococcus aureus; settings: sheep, IM injection; cited from earlier work
[6] = test system: small intestine motility; settings: 10 g/300 ml water via intragastric probe; cancelled with naloxone; cited from earlier work
[7] = test system: pathogenic strains; settings: in vitro; cited from earlier work; remark: listed apart in the source
[8] = test system: platelet aggregation; settings: in vitro; cited from earlier work
[9] = Storage of fermented product thermized at 75° C. for 1 minute; settings: thermized 75° C., about 1 minute
Method: FIG. 5: Curves illustrating the change in the residual content of bioactive peptide αS1 [91-100], added after fermentation in a fermented product and then thermized at 75° C. for 1 minute, and stored at 10° C. up to the expiry date.
(FIG. 5), but at the expense of the overall quality of the finished product. Specifically, this solution has many drawbacks: • the thermization of a fermented dairy mass entails the use of stabilizers added before the heat treatment (pectins, starches, carrageenans, etc.), which complicates the process and substantially increases the cost of the formula; • the industrial manufacturing line is more complex and requires a larger specific investment; • the product no longer benefits from appellations associated with products containing live ferments (such as yogurt) and as a result loses the benefits associated with the consumption of lactic ferments; • the organoleptic impact (generally negative) is substantial.

## 191-193 casein: Bovine β-casein fragment 191-193 (LLY; UniProt P02666 206-208, looked up, fragment)
[1]
  effect on mouse peritoneal macrophages: Stimulation of mouse
[2]
  in vivo protection: No in vivo protection

## CC[C@H](C)[C@H](NC(=O)[C@@H]1CCCN1C(=O)[C@H](Cc1cnc[nH]1)NC(=O)[C@H](CCCCN)NC(=O)[C@@H]1CCCN1C(=O)[C@@H](N)CCCNC(=N)N)C(=O)N[C@@H](CCCCN)C(=O)N[C@@H](Cc1cnc[nH]1)C(=O)N[C@@H](CCC(N)=O)C(=O)NCC(=O)N[C@@H](CC(C)C)C(=O)N1CCC[C@H]1C(=O)N[C@@H](CCC(N)=O)C(=O)N[C@@H](CCC(=O)O)C(=O)N[C@H](C(=O)N[C@@H](CC(C)C)C(=O)N[C@@H](CC(N)=O)C(=O)N[C@@H](CCC(=O)O)C(=O)N[C@@H](CC(N)=O)C(=O)N[C@@H](CC(C)C)C(=O)N[C@@H](CC(C)C)C(=O)N[C@@H](CCCNC(=N)N)C(=O)N[C@@H](Cc1ccccc1)C(=O)O)C(C)C [isracidin] (H-RPKHPIKHQGLPQEVLNENLLRF-OH)
[3]
  growth of pathogenic strains: Inhibition of growth
[4]
  efficacy against Staphylococcus aureus: Mice, sheep: effective in IM
[5]
  efficacy against Staphylococcus aureus: Mice, sheep: effective in IM

## Casein
[6]
  small intestine motility: intragastric probe: inhibition

## Lactoferricin
[7]
  growth of pathogenic strains: Inhibition of growth

## Peptide 106-116 of bovine κ-casein: Peptide 106-116 of bovine κ-casein (MAIPPKKNQDK; UniProt P02668 127-137, looked up, fragment)
[8]
  platelet aggregation: Inhibition of

## peptide αS1 [91-100]: fragment 91-100 of casein αS1; peptide with relaxing properties contained in the milk protein hydrolyzate Lactium® (Ingredia) (YLGYLEQLLR; UniProt P02662 106-115, looked up, fragment)
[9]
  stability of the peptide after heat treatment of the fermented product: possible to ensure the stability; also recorded: possible to preserve
